These results are taken from patent US10000739B2, “Method and culture medium for improving pluripotent stem cell differentiation inducing efficiency” (NATIONAL UNIVERSITY CORPORATION KUMAMOTO UNIVERSITY, priority 2010, dated 2018).

Read-outs that look alike come from different tables or passages of the source.

The subject of assay [1] is human iPS cells. Kind of assay: Differentiation of human iPS cells into endoderm cells on mmcM15 cells, immunofluorescent staining for Sox17 and Oct3/4. Format: cell-based. The conditions noted are these: staining Day 10, vs control culture medium. Here is the method:
(§1) In performing a whole mount immunohistochemistry test, ES cells or iPS cells were placed on Nunc Theranox Colerslips 24-well type (Nunc). Cells were fixed at room temperature for 20 minutes in 4% paraformaldehyde, and washed sufficiently with 0.1% Tween-containing phosphate buffered saline (PBS-T). In PBS containing 1% TritonX-100, the cells were infiltrated at room for 10 minutes, and incubated for 1 hour in a blocking solution (×5 Blocking One, Nacalai Tesque), then, primary antibodies in the blocking solution were added to the sample, and incubated at 4° C. overnight. The sample was washed sufficiently with PBS-T, and mounted with PermaFluor Aqueous Mounting culture medium (IMMUNON). A confocal image was obtained using Leica Spectral Confocal Scanning System, TCS-SP2 (Leica).
(§2) Antibodies used for detection are as described below. Rabbitanti-α-fetoprotein (AFP, Dako), goat anti-albumin (Sigma), rabbit anti-Pdx1 (Chemicon), mouse anti-Oct3/4 (Santa Cruz), goat anti-Sox17 (R&D). As secondary antibodies, Alexa568-labeled goat anti-rabbit antibody and donkey anti-goat antibody, and Alexa488-labeled goat anti-mouse antibody and goat anti-rabbit antibody, donkey anti-goat antibody (Molecular Probes) were used. Cells were counter-stained with DAPI (Roche). The numbers of Sox17 and Oct3/4 positive cells were quantified using ImageXpress (Molecular Devices Corporation).
Differentiation of human iPS cells into endoderm cells was induced using endoderm differentiation culture media deprived of one amino acid for each culture medium. For induction of differentiation into endoderm cells, an endoderm differentiation inducing method using mmcM15 cells was used (see, non-patent document 6).
As the culture medium, the following media were used depending on the culturing period. From initiation of culturing (Day 0) until Day 6 or Day 8 of culturing, PRMI 1640 culture medium (Invitrogen) containing 50 units/ml penicillin and 50 μg/ml streptomycin (GIBCO), 2 mM L-glutamine (GIBCO), 100 μM β-mercaptoethanol (Sigma), non-essential amino acid (GIBCO), 100 ng/ml activin (R&D Systems) and B27 culture medium additive (Invitrogen) added was used as an endoderm differentiation culture medium.
From Day 6 or Day 8 until Day 10, amino acid-deprived culture media obtained by removing one amino acid from PRMI 1640 culture medium containing 50 units/ml penicillin and 50 μg/ml streptomycin, 2 mM L-glutamine, 100 μM β-mercaptoethanol, 100 ng/ml activin and B27 culture medium additive added, or a culture medium not deprived of an amino acid (control culture medium) was used as an endoderm differentiation culture medium.
Specifically, mmcM15 cells were seeded as supporting cells on a gelatin-coated 96-well plate. Human iPS cells were treated with Y27632 (10 μM) from 24 hours before seeding, and peeled using 0.25% trypsin. The peeled human iPS cells were seeded on mmcM15 cells at a cell concentration of 1×10^4 cells/well. The seeded human iPS cells were cultured for 24 hours under 37° C. and 5% CO2 in ES culture medium (ReproStem, ReproCell) containing 10 μM Y27632 and 5 ng/ml bFGF added. After 24 hours, cells were washed once with PBS, then, the culture medium was changed to an endoderm differentiation culture medium (Day 0). Until Day 6 or Day 8 of culturing, the endoderm differentiation culture medium was changed every other day, and human iPS cells were cultured under 37° C. and 5% CO2. On Day 6 or Day 8, the culture medium was changed to an amino acid-deprived culture medium or a control culture medium. Human iPS cells were cultured until Day 10 of culturing using an amino acid-deprived culture medium or a control culture medium. On Day 10, human iPS cells were subjected to immunofluorescent staining, and the proportions of positive cells for an endoderm differentiation marker (Sox17) and an undifferentiation marker (Oct3/4) were quantitatively analyzed. The proportion of the positive cells based on those stained with DAPI was calculated.

For assay [2], the system named is human iPS cells. Kind of assay: Addition of methionine metabolites to methionine-deprived or methyl donor-deprived culture medium, Oct3/4 and Sox17 positive cells counted. The class given is cell-based. The conditions noted are these: for effect of reducing Oct3/4 positive cells owing to methionine deprivation: added to methionine-deprived culture medium (ΔMet) Day 8 to Day 10; for effect of reducing Oct3/4 positive cells: added to methyl donor-deprived culture medium (ΔMD) Day 8 to Day 10. Here is the method:
For investigating an influence of a methionine and methyl donor-deprived culture medium on differentiation into endoderm cells, a culture medium was deprived of methionine and methyl donors on Day 8 of differentiation, and cells were cultured until Day 10 and the numbers of Oct3/4 and Sox17 positive cells were evaluated by antibody staining. Specifically, mmcM15 cells were seeded as supporting cells on a gelatin-coated 96-well plate. Human iPS cells were treated with Y27632 (10 μM) from 24 hours before seeding, and peeled using 0.25% trypsin. The peeled human iPS cells were seeded on mmcM15 cells at a cell concentration of 1×10^4 cells/well. The seeded human iPS cells were cultured for 24 hours under 37° C. and 5% CO2 in ES culture medium containing Y27632 and bFGF added. After 24 hours, the culture medium was changed to an endoderm differentiation culture medium (Day 0). The endoderm differentiation culture medium was changed every other day and human iPS cells cultured under 37° C. and 5% CO2 from the day of initiation of culture (Day 0) to Day 8. On Day 8, the culture medium was changed to various culture media. One obtained by removing […]⋅folate⋅vitamin B12⋅betaine⋅choline from the culture medium was used as a methyl donor-deprived culture medium. Human iPS cells were cultured until Day 10 using various culture media, and Oct3/4 and Sox17 positive cells were counted.
It is known that methionine is metabolized to give cysteine (Cys). […] In the figure, δMD denotes a culture medium not containing methionine, folic acid, vitamin B12, betaine and choline as a methyl donor.

Assay [3] deals with human iPS cells. Here is the method: as §1, §2
The methionine addition concentration between Day 8 and Day 10 was […], 0.1, 1.0, 5.0, 10.0, 20.0, 50.0, 100, 200 and 500 μM.
On Day 10, the culture medium was changed to a liver differentiation culture medium ([…] containing 10% KSR, 2000 mg/l D-glucose, 50 units/ml penicillin and 50 μg/ml streptomycin, 2 mM L-glutamine, 100 μM β-mercaptoethanol, […] human recombinant HGF and 1 μM dexamethasone (hereinafter, referred to as “2000KSR-DMEM culture medium”)), and cultured under 37° C. and 5% CO2 until Day 20. During Day 10 to Day 20, the culture medium was changed every other day. On Day 20, human iPs cells were subjected to immunofluorescent staining, and the proportions of Oct3/4 positive cells and AFP positive cells were compared for every methionine concentration.
On Day 10, the culture medium was changed to a liver differentiation culture medium (2000KSR-DMEM culture medium), and human iPS cells were cultured under 37° C. and 5% CO2 until Day 30. During Day 10 to Day 30, the culture medium was changed every other day.

Setting [4] is: amino acid-deprived endoderm differentiation culture medium Day 6 to Day 10.
Setting [5] is: amino acid-deprived endoderm differentiation culture medium Day 8 to Day 10.
The mark [6] stands for this setting: methionine 0 μM to 0.1 μM Day 8 to Day 10, Day 20, FIG. 7C.
[7] abbreviates: methionine 1 μM to 20 μM Day 8 to Day 10, Day 20, FIG. 7C.
[8] abbreviates: methionine 50 μM or more Day 8 to Day 10, Day 20, FIG. 7C.

For the compound `N[C@@H](Cc1c[nH]cn1)C(=O)O` [His, histidine], the “Oct3/4 positive cell ratio” value in assay [1] (setting [4]) was “decreased”; in assay [1] (setting [5]), “remarkably decreased”.
As for `N[C@@H](Cc1ccc(O)cc1)C(=O)O` [Tyr, tyrosine], the “Oct3/4 positive cell ratio” value in assay [1] (setting [4]) was “decreased”. Also, in assay [1] (setting [5]), the “Oct3/4 positive cell ratio” value was “remarkably decreased” and the “Sox17 positive cell ratio” value was “without change”.
As for `CC(C)[C@H](N)C(=O)O` [Val, valine], the “Oct3/4 positive cell ratio” value in assay [1] (setting [4]) is reported as “decreased”; in assay [1] (setting [5]), “remarkably decreased”.
In the case of `N=C(N)NCCC[C@H](N)C(=O)O` [Arg, arginine], the “Oct3/4 positive cell ratio” value in assay [1] (setting [4]) is listed as “decreased”. Also, in assay [1] (setting [5]), the “Oct3/4 positive cell ratio” value is “remarkably decreased” and the “Sox17 positive cell ratio” value is “increased”.
On the same counts, the results for `CC(C)C[C@H](N)C(=O)O` [Leu, leucine] are “decreased”, “remarkably decreased” and “increased”.
Turning to `C[S+](CC[C@H](N)C(=O)O)C[C@H]1O[C@@H](n2cnc3c(N)ncnc32)[C@H](O)[C@@H]1O` (stereo partly shown) [SAM, S-adenosylmethionine], in assay [2], the “effect of reducing Oct3/4 positive cells owing to methionine deprivation” value is reported as “the effect of reducing Oct3/4 positive cells is inhibited” and the “effect of reducing Oct3/4 positive cells” value is reported as “inhibited the effect of reducing Oct3/4 positive cells”.
For `Nc1ncnc2c1ncn2[C@@H]1O[C@H](CSCC[C@H](N)C(=O)O)[C@@H](O)[C@H]1O` [SAH, S-adenosylhomocystein], in assay [2], the “effect of reducing Oct3/4 positive cells owing to methionine deprivation” value is “the effect of reducing Oct3/4 positive cells is inhibited” and the “effect of reducing Oct3/4 positive cells” value is listed as “had not influence”.
In the case of `N[C@@H](Cc1c[nH]c2ccccc12)C(=O)O` [Trp, tryptophan], the “Oct3/4 positive cell ratio” value is listed as “decreased” in assay [1] (setting [4]) and “remarkably decreased” in assay [1] (setting [5]).
For the compound `CC[C@H](C)[C@H](N)C(=O)O` [Ile, isoleucine], the “Oct3/4 positive cell ratio” value in assay [1] (setting [4]) is reported as “decreased”; in assay [1] (setting [5]), “remarkably decreased”.
`N[C@@H](CS)C(=O)O` [Cys, cysteine]: in assay [2], the “effect of reducing Oct3/4 positive cells owing to methionine deprivation” value is “has no influence”. For the same compound, the “Oct3/4 positive cell ratio” value in assay [1] (setting [4]) is “decreased”. Besides, in assay [1] (setting [5]), the “Oct3/4 positive cell ratio” value was “remarkably decreased” and the “Sox17 positive cell ratio” value was “increased”.
Consider `NC(=O)CC[C@H](N)C(=O)O` [Gln], for which, in assay [1] (setting [5]), the “Sox17 positive cell ratio” value was “increased”.
As to `CSCC[C@H](N)C(=O)O` [Met, methionine], in assay [2], the “effect of reducing Oct3/4 positive cells owing to methionine deprivation” value is on record as “the effect of reducing Oct3/4 positive cells is inhibited” and the “effect of reducing Oct3/4 positive cells” value is on record as “inhibited the effect of reducing Oct3/4 positive cells”. In addition, the “Oct3/4 positive cell ratio” value in assay [1] (setting [4]) is given as “decreased”. In assay [1] (setting [5]), the “Oct3/4 positive cell ratio” value is “remarkably decreased” and the “Sox17 positive cell ratio” value is on record as “increased”. In assay [3] (setting [6]), the AFP positive cells result is on record as “present uniformly” and the “amount of remaining Oct3/4 positive cells” value is listed as “small”. Besides, in assay [3] (setting [7]), the “number of AFP positive cells” value is “decrease in the number of AFP positive cells is not recognized” and the “number of Oct3/4 positive cells” value was “increases slightly”. In assay [3] (setting [8]), the “number of Oct3/4 positive cells” value is given as “remarkable increase” and the “number of Sox17 positive cells” value was “remarkable decrease”. Further, the “proportion of Oct3/4 positive cells on Day 20” value in assay [3] (methionine added Day 8 to Day 10 at various concentrations up to 500 μM, then liver differentiation culture medium) was “increased depending on the methionine concentration”. Besides, the “proportion of AFP positive cells” value in assay [3] (methionine concentrations of 50 μM or more Day 8 to Day 10, Day 20, FIG. 7B) was “decreased”.
With `N[C@@H](CO)C(=O)O` [Ser], in assay [1] (setting [5]), the “Sox17 positive cell ratio” value was “increased”.
On to `N[C@@H](Cc1ccccc1)C(=O)O` [Phe, phenylalanine], for which the entries for the “Oct3/4 positive cell ratio” value in assay [1] (setting [4]) and in assay [1] (setting [5]) were “decreased” and “remarkably decreased”, respectively.
`N[C@@H](CCS)C(=O)O` [Hcy, homocysteine]: in assay [2], the “effect of reducing Oct3/4 positive cells owing to methionine deprivation” value is listed as “the effect of reducing Oct3/4 positive cells is inhibited” and the “effect of reducing Oct3/4 positive cells” value is on record as “had not influence”.
On to `NCC(=O)O` [Gly], for which the “Sox17 positive cell ratio” value in assay [1] (setting [5]) is “increased”.
With `NCCCC[C@H](N)C(=O)O` [Lys, lysine], the “Oct3/4 positive cell ratio” value in assay [1] (setting [4]) is on record as “decreased”; in assay [1] (setting [5]), “remarkably decreased”.
On to `C[C@@H](O)[C@H](N)C(=O)O` [Thr, threonine], for which the “Oct3/4 positive cell ratio” value in assay [1] (setting [4]) is listed as “decreased”; in assay [1] (setting [5]), “remarkably decreased”.
